Measurements taken from ChEMBL document CHEMBL1201862, “PubChem BioAssay data set” (2004).
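Method: 48-hour compound exposure of cells in 96-well plates, five concentrations, linear interpolation of endpoints. The concentration for 50% growth inhibition is given as GI50.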 Calls of active or inactive are those of the source. Rule as the data show it: active = GI50 up to about 1.1 µM and inactive = higher.

What was measured:
Test in all cases: inhibition of tumour cell growth, NCI panel, 48 h
COLO 205 = system: COLO 205
M19-MEL = system: M19-MEL
MDA-MB-231 = system: MDA-MB-231
SW-620 = system: SW-620
MCF7 = system: MCF7
SK-MEL-5 = system: SK-MEL-5
SNB-75 = system: SNB-75
RPMI-8226 = system: RPMI-8226
M14 = system: M14
SK-OV-3 = system: SK-OV-3
HCC 2998 = system: HCC 2998
BT-549 = system: BT-549
RXF 393 = system: RXF 393
OVCAR-8 = system: OVCAR-8
TK-10 = system: TK-10
T47D = system: T47D
OVCAR-3 = system: OVCAR-3
MDA-MB-435 = system: MDA-MB-435
U-251 = system: U-251
SN12C = system: SN12C

With `CC1(C)CC(Nc2ccc(Nc3ccccc3)cc2)CC(C)(C)N1` the GI50 (COLO 205) was 16.8 µM (inactive), the GI50 (M19-MEL) was 35.2 µM (inactive) and the GI50 (MDA-MB-231) was 14.9 µM (inactive). The GI50 (SW-620) was 21.8 µM (inactive), the GI50 (MCF7) was 16.7 µM (inactive) and the GI50 (SK-MEL-5) was 15.2 µM (inactive). The GI50 (SNB-75) was 37.6 µM (inactive), the GI50 (RPMI-8226) was 12.7 µM (inactive) and the GI50 (M14) was 17.7 µM (inactive). The GI50 (SK-OV-3) was > 100 µM (inactive), the GI50 (HCC 2998) was 15.7 µM (inactive) and the GI50 (BT-549) was 12.7 µM (inactive). The GI50 (RXF 393) was 18 µM (inactive), the GI50 (OVCAR-8) was 30.1 µM (inactive) and the GI50 (TK-10) was 32.8 µM (inactive). The GI50 (T47D) was 16 µM (inactive), the GI50 (OVCAR-3) was 18.4 µM (inactive) and the GI50 (MDA-MB-435) was 16.8 µM (inactive). The GI50 (U-251) was 26.1 µM (inactive) and the GI50 (SN12C) was 48.6 µM (inactive).
With `CC(O[Si](C)(C)C)C1C=CC(C)n2c(=O)n(-c3ccccc3)c(=O)n21` (stereo not drawn) the GI50 (COLO 205) was > 100 µM (inactive), the GI50 (M19-MEL) was > 100 µM (inactive) and the GI50 (SK-MEL-5) was > 100 µM (inactive). The GI50 (RPMI-8226) was > 100 µM (inactive), the GI50 (M14) was > 100 µM (inactive) and the GI50 (SK-OV-3) was > 100 µM (inactive). For the same compound, the GI50 (HCC 2998) was > 100 µM (inactive), the GI50 (RXF 393) was > 100 µM (inactive) and the GI50 (OVCAR-8) was > 100 µM (inactive). For the same compound, the GI50 (TK-10) was > 100 µM (inactive), the GI50 (OVCAR-3) was > 100 µM (inactive) and the GI50 (U-251) was > 100 µM (inactive).
With `COC12OCCN(C)C1=CC(=O)C1(C)N=NCC12` (stereo not drawn) the GI50 (COLO 205) was > 100 µM (inactive), the GI50 (M19-MEL) was > 100 µM (inactive) and the GI50 (SW-620) was > 100 µM (inactive). The GI50 (SK-MEL-5) was > 100 µM (inactive), the GI50 (SNB-75) was > 100 µM (inactive) and the GI50 (RPMI-8226) was > 100 µM (inactive). The GI50 (M14) was > 100 µM (inactive), the GI50 (SK-OV-3) was > 100 µM (inactive) and the GI50 (HCC 2998) was > 100 µM (inactive). The GI50 (RXF 393) was > 100 µM (inactive), the GI50 (OVCAR-8) was > 100 µM (inactive) and the GI50 (TK-10) was > 100 µM (inactive). The GI50 (OVCAR-3) was > 100 µM (inactive), the GI50 (U-251) was > 100 µM (inactive) and the GI50 (SN12C) was > 100 µM (inactive).
In the case of `O=C1Cc2c([nH]c3ccccc23)-c2ccccc2N1` [PAULLONE], the GI50 (COLO 205) is reported as 22 µM (inactive), the GI50 (M19-MEL) is reported as 53.1 µM (inactive) and the GI50 (SW-620) is reported as 28.2 µM (inactive). For the same compound, the GI50 (SK-MEL-5) was 22.8 µM (inactive), the GI50 (SNB-75) was 19.8 µM (inactive) and the GI50 (RPMI-8226) was 20.2 µM (inactive). The GI50 (M14) was 42.5 µM (inactive), the GI50 (SK-OV-3) was > 100 µM (inactive) and the GI50 (HCC 2998) was 19.9 µM (inactive). For the same compound, the GI50 (RXF 393) was 16.1 µM (inactive), the GI50 (OVCAR-8) was 40.1 µM (inactive) and the GI50 (TK-10) was > 100 µM (inactive). The GI50 (OVCAR-3) was 23.1 µM (inactive), the GI50 (U-251) was 39.6 µM (inactive) and the GI50 (SN12C) was 38.2 µM (inactive).
`O=C(Cc1ccccc1)NN1C(=O)C(Cl)C1c1cccc([N+](=O)[O-])c1` (stereo not drawn) was tested, and the GI50 (COLO 205) was > 100 µM (inactive), the GI50 (M19-MEL) was 5.16 µM (inactive) and the GI50 (SW-620) was 27.6 µM (inactive). The GI50 (SK-MEL-5) was 39.9 µM (inactive), the GI50 (SNB-75) was 0.729 µM (active) and the GI50 (RPMI-8226) was 16.6 µM (inactive). For the same compound, the GI50 (M14) was 46.7 µM (inactive), the GI50 (SK-OV-3) was 90.6 µM (inactive) and the GI50 (HCC 2998) was > 100 µM (inactive). For the same compound, the GI50 (RXF 393) was 25.6 µM (inactive), the GI50 (OVCAR-8) was 27.9 µM (inactive) and the GI50 (TK-10) was > 100 µM (inactive). For the same compound, the GI50 (OVCAR-3) was 43.4 µM (inactive), the GI50 (U-251) was 63.2 µM (inactive) and the GI50 (SN12C) was 38.8 µM (inactive).
For `Cc1cc2c(=O)cc(-c3cccs3)oc2c(C(=O)O)c1C`, the GI50 (COLO 205) was > 100 µM (inactive), the GI50 (M19-MEL) was > 100 µM (inactive) and the GI50 (SW-620) was > 100 µM (inactive). For the same compound, the GI50 (SK-MEL-5) was > 100 µM (inactive), the GI50 (SNB-75) was 1.56 µM (inactive) and the GI50 (RPMI-8226) was 59.3 µM (inactive). For the same compound, the GI50 (M14) was > 100 µM (inactive), the GI50 (SK-OV-3) was > 100 µM (inactive) and the GI50 (HCC 2998) was > 100 µM (inactive). For the same compound, the GI50 (OVCAR-8) was > 100 µM (inactive), the GI50 (TK-10) was > 100 µM (inactive) and the GI50 (OVCAR-3) was > 100 µM (inactive). For the same compound, the GI50 (U-251) was > 100 µM (inactive) and the GI50 (SN12C) was > 100 µM (inactive).
In the case of `CC(C)(C)C(=O)CC(=O)C(C)(C)C.CC(C)(C)C(=O)CC(=O)C(C)(C)C.[SiH4]`, the GI50 (COLO 205) is reported as 1.46 µM (inactive), the GI50 (M19-MEL) is reported as 1.86 µM (inactive) and the GI50 (SW-620) is reported as 0.847 µM (active). The GI50 (SK-MEL-5) was 2.1 µM (inactive), the GI50 (SNB-75) was 0.719 µM (active) and the GI50 (RPMI-8226) was 0.299 µM (active). The GI50 (M14) was 2.18 µM (inactive), the GI50 (SK-OV-3) was 1.87 µM (inactive) and the GI50 (HCC 2998) was 0.393 µM (active). The GI50 (OVCAR-8) was 2.92 µM (inactive), the GI50 (TK-10) was 3.4 µM (inactive) and the GI50 (OVCAR-3) was 2.07 µM (inactive). For the same compound, the GI50 (U-251) was 0.596 µM (active) and the GI50 (SN12C) was 1.18 µM (inactive).
For `CCCC12Cc3c(OC)ccc(OC)c3CC(Cc3c(OC)ccc(OC)c31)C2=O` (stereo not drawn), the GI50 (M19-MEL) was > 100 µM (inactive), the GI50 (SW-620) was > 100 µM (inactive) and the GI50 (SK-MEL-5) was 73.5 µM (inactive). The GI50 (SNB-75) was > 100 µM (inactive), the GI50 (M14) was > 100 µM (inactive) and the GI50 (SK-OV-3) was > 100 µM (inactive). For the same compound, the GI50 (HCC 2998) was > 100 µM (inactive), the GI50 (RXF 393) was > 100 µM (inactive) and the GI50 (OVCAR-8) was > 100 µM (inactive). The GI50 (TK-10) was > 100 µM (inactive), the GI50 (OVCAR-3) was > 100 µM (inactive) and the GI50 (U-251) was > 100 µM (inactive). For the same compound, the GI50 (SN12C) was > 100 µM (inactive).
